Results published in the supplement of paper PMC11061612.

How the values were obtained:
[1] = test system: C-4-I (Cervical Carcinoma); experiment: Bliss excess, mean over the matrix (fraction); higher = more synergy
How it was run: (§1)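 Bliss excess equals the observed combination effect minus the expected value EA + EB − EA·EB, where EA and EB are the effects of each agent alone. Combination Emax is the second-highest inhibition within the matrix. Inhibition was scaled from CellTiter-Glo 2.0 luminescence, with 0 set by vehicle wells and 1 by blank wells, after 72 hours of two-drug dosing of cells plated in 1536-well plates.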

[2] = test system: JVM-3 (B-Cell Non-Hodgkin's Lymphoma); experiment: as above
How it was run: as §1

YH-13 (Glioblastoma) = experiment: as above
How it was run: as §1

[3] = test system: JVM-3 (B-Cell Non-Hodgkin's Lymphoma); experiment: combination Emax (second highest fraction inhibited in the dose matrix, 72 h); higher = more inhibition; extreme values may be limits of the assay
How it was run: as §1

Work on `Cc1c2c(nn1C)CSCc1cc(n(C)n1)CSc1cc(c3ccccc3c1)OCCCc1c(C(=O)O)n(C)c3c-2c(Cl)ccc13` [AZD5991] + Cc1cc2ncnn2cc1Nc1ncc2c(n1)n(C1CCOCC1)c(=O)n2C [AZD7648] (first compound max 1 µM, 7x7, partner max 10 µM) yielded a Bliss excess [1] of -0.0135, a Bliss excess [2] of -0.0539 and a Bliss excess (YH-13 (Glioblastoma)) of -0.091. The “combination Emax” value [3] was 0.498.

For `Cc1c2c(nn1C)CSCc1cc(n(C)n1)CSc1cc(c3ccccc3c1)OCCCc1c(C(=O)O)n(C)c3c-2c(Cl)ccc13` [AZD5991] + C=CCn1c(=O)c2cnc(Nc3ccc(N4CCN(C)CC4)cc3)nc2n1-c1cccc(C(C)(C)O)n1 [AZD1775] (first compound max 1 µM, partner max 1 µM), the Bliss excess [1] was 0.0267, the Bliss excess [2] was -0.0884 and the Bliss excess (YH-13 (Glioblastoma)) was -0.0275. The “combination Emax” value [3] was 0.92.

With `Cc1c2c(nn1C)CSCc1cc(n(C)n1)CSc1cc(c3ccccc3c1)OCCCc1c(C(=O)O)n(C)c3c-2c(Cl)ccc13` [AZD5991] + C[C@@H]1COCCN1C2=NC(=NC(=C2)C3(CC3)[S@](=N)(=O)C)C4=C5C=CNC5=NC=C4 [AZD6738] (first compound max 1 µM, 7x7, partner max 10 µM) the Bliss excess [1] was 0.0416, the Bliss excess [2] was -0.0642 and the Bliss excess (YH-13 (Glioblastoma)) was 0.0218. The “combination Emax” value [3] was 0.713.

`COc1cccc(OCCCN)c1-c1cc(Nc2cnc(C#N)cn2)n[nH]1` [Prexasertib] + CCc1c2c(nc3ccc(O)cc13)-c1cc3c(c(=O)n1C2)COC(=O)[C@]3(O)CC [SN-38] (first compound max 1 µM, 7x7, partner max 0.3 µM) showed a Bliss excess [1] of 0.0026, a Bliss excess [2] of -0.0363 and a Bliss excess (YH-13 (Glioblastoma)) of 0.0079. The “combination Emax” value [3] was 0.994.

Compound `CCN(CCO)CCCOc1ccc2c(Nc3cc(CC(=O)Nc4cccc(F)c4)[nH]n3)ncnc2c1` [AZD2811] + C[C@@H]1COCCN1C2=NC(=NC(=C2)C3(CC3)[S@](=N)(=O)C)C4=C5C=CNC5=NC=C4 [AZD6738] (first compound max 1 µM, 7x7, partner max 10 µM) has a Bliss excess [1] of -0.0263, a Bliss excess [2] of -0.0101 and a Bliss excess (YH-13 (Glioblastoma)) of -0.0931. For the same compound, the “combination Emax” value [3] was 0.723.

`CCN(CCO)CCCOc1ccc2c(Nc3cc(CC(=O)Nc4cccc(F)c4)[nH]n3)ncnc2c1` [AZD2811] + O=C(c1cc(Cc2n[nH]c(=O)c3ccccc23)ccc1F)N1CCN(C(=O)C2CC2)CC1 [Olaparib] (first compound max 1 µM, 7x7, partner max 10 µM) was tested, and the Bliss excess [1] was 0.0328, the Bliss excess [2] was -0.0119 and the Bliss excess (YH-13 (Glioblastoma)) was 0.0304. The “combination Emax” value [3] was 0.45.

Work on `CN(C)CCCOc1ccc(-c2ccc3ncc4c(c3c2)n(C2CCOCC2)c(=O)n4C)cn1` [AZD0156] + C=CCn1c(=O)c2cnc(Nc3ccc(N4CCN(C)CC4)cc3)nc2n1-c1cccc(C(C)(C)O)n1 [AZD1775] (first compound max 1 µM, partner max 1 µM) yielded a Bliss excess [1] of -0.0175, a Bliss excess [2] of -0.0347 and a Bliss excess (YH-13 (Glioblastoma)) of -0.0238. The “combination Emax” value [3] was 0.895.

`C=CCn1c(=O)c2cnc(Nc3ccc(N4CCN(C)CC4)cc3)nc2n1-c1cccc(C(C)(C)O)n1` [AZD1775] + C1CN(CCC1(C(=O)N[C@@H](CCO)C2=CC=C(C=C2)Cl)N)C3=NC=NC4=C3C=CN4 [Capivasertib] (first compound max 3 µM, partner max 3 µM) was tested, and the Bliss excess [1] was 0.0113, the Bliss excess [2] was 0.0012 and the Bliss excess (YH-13 (Glioblastoma)) was -0.0309. The “combination Emax” value [3] was 0.971.

`Cc1c2c(nn1C)CSCc1cc(n(C)n1)CSc1cc(c3ccccc3c1)OCCCc1c(C(=O)O)n(C)c3c-2c(Cl)ccc13` [AZD5991] + CCN(CCO)CCCOc1ccc2c(Nc3cc(CC(=O)Nc4cccc(F)c4)[nH]n3)ncnc2c1 [AZD2811] (first compound max 1 µM, 7x7, partner max 1 µM) gave a Bliss excess [1] of 0.0332, a Bliss excess [2] of 0.0892 and a Bliss excess (YH-13 (Glioblastoma)) of 0.0141. The “combination Emax” value [3] was 0.486.

For `COc1cccc2c1C(=O)c1c(O)c3c(c(O)c1C2=O)C[C@@](O)(C(=O)CO)C[C@@H]3O[C@H]1C[C@H](N)[C@H](O)[C@H](C)O1` [Doxorubicin] + Cc1cc2ncnn2cc1Nc1ncc2c(n1)n(C1CCOCC1)c(=O)n2C [AZD7648] (first compound max 1 µM, 7x7, partner max 10 µM), the Bliss excess [1] was 0.1, the Bliss excess [2] was 0.0661 and the Bliss excess (YH-13 (Glioblastoma)) was 0.0443. The “combination Emax” value [3] was 0.978.

With `NC1(C(=O)N[C@@H](CCO)c2ccc(Cl)cc2)CCN(c2ncnc3[nH]ccc23)CC1` [Capivasertib] + CC(=O)c1c(C)c2cnc(Nc3ccc(N4CCNCC4)cn3)nc2n(C2CCCC2)c1=O [Palbociclib] (first compound max 10 µM, 7x7, partner max 10 µM) the Bliss excess [1] was -0.0334 and the Bliss excess (YH-13 (Glioblastoma)) was 0.0004.

For `CS(=O)(=O)CCNCc1ccc(-c2ccc3ncnc(Nc4ccc(OCc5cccc(F)c5)c(Cl)c4)c3c2)o1` [Lapatinib] + C[C@@H](Oc1cc(-c2cnn(C3CCNCC3)c2)cnc1N)c1c(Cl)ccc(F)c1Cl [Crizotinib] (first compound max 10 µM, 7x7, partner max 10 µM), the Bliss excess [1] was 0.0399 and the Bliss excess (YH-13 (Glioblastoma)) was -0.0388.

For `CC(=O)c1c(C)c2cnc(Nc3ccc(N4CCNCC4)cn3)nc2n(C2CCCC2)c1=O` [Palbociclib] + Cc1c2c(nn1C)CSCc1cc(n(C)n1)CSc1cc(c3ccccc3c1)OCCCc1c(C(=O)O)n(C)c3c-2c(Cl)ccc13 [AZD5991] (first compound max 10 µM, 7x7, partner max 1 µM), the Bliss excess [1] was -0.115 and the Bliss excess (YH-13 (Glioblastoma)) was -0.003.

`NC1(C(=O)N[C@@H](CCO)c2ccc(Cl)cc2)CCN(c2ncnc3[nH]ccc23)CC1` [Capivasertib] + CCN(CCO)CCCOc1ccc2c(Nc3cc(CC(=O)Nc4cccc(F)c4)[nH]n3)ncnc2c1 [AZD2811] (first compound max 10 µM, 7x7, partner max 1 µM) showed a Bliss excess [1] of -0.0492 and a Bliss excess (YH-13 (Glioblastoma)) of -0.0317.

Compound `NC1(C(=O)N[C@@H](CCO)c2ccc(Cl)cc2)CCN(c2ncnc3[nH]ccc23)CC1` [Capivasertib] + C[C@@H]1COCCN1C2=NC(=NC(=C2)C3(CC3)[S@](=N)(=O)C)C4=C5C=CNC5=NC=C4 [AZD6738] (first compound max 10 µM, 7x7, partner max 10 µM) has a Bliss excess [1] of 0.0234 and a Bliss excess (YH-13 (Glioblastoma)) of -0.0771.

Work on `NC1(C(=O)N[C@@H](CCO)c2ccc(Cl)cc2)CCN(c2ncnc3[nH]ccc23)CC1` [Capivasertib] + COc1nnc2ccc(N3CCC(c4ccc(OCCN5CCN(C)C(=O)[C@H]5C)cc4)CC3)nn12 [AZD5153] (first compound max 10 µM, 7x7, partner max 1 µM) yielded a Bliss excess [1] of 0.046 and a Bliss excess (YH-13 (Glioblastoma)) of 0.0553.

In the case of `COc1nnc2ccc(N3CCC(c4ccc(OCCN5CCN(C)C(=O)[C@H]5C)cc4)CC3)nn12` [AZD5153] + CCN(CCO)CCCOc1ccc2c(Nc3cc(CC(=O)Nc4cccc(F)c4)[nH]n3)ncnc2c1 [AZD2811] (first compound max 1 µM, 7x7, partner max 1 µM), the Bliss excess [1] is reported as 0.0165 and the Bliss excess (YH-13 (Glioblastoma)) is reported as -0.0409.

Work on `CC(=O)c1c(C)c2cnc(Nc3ccc(N4CCNCC4)cn3)nc2n(C2CCCC2)c1=O` [Palbociclib] + Cn1cnc2c(F)c(Nc3ccc(Br)cc3Cl)c(C(=O)NOCCO)cc21 [Selumetinib] (first compound max 10 µM, 7x7, partner max 10 µM) yielded a Bliss excess [1] of -0.0119 and a Bliss excess (YH-13 (Glioblastoma)) of 0.0093.

Work on `Cn1cnc2c(F)c(Nc3ccc(Br)cc3Cl)c(C(=O)NOCCO)cc21` [Selumetinib] + CCN(CCO)CCCOc1ccc2c(Nc3cc(CC(=O)Nc4cccc(F)c4)[nH]n3)ncnc2c1 [AZD2811] (first compound max 10 µM, 7x7, partner max 1 µM) yielded a Bliss excess [1] of 0.0582 and a Bliss excess (YH-13 (Glioblastoma)) of -0.14.

For `COc1nnc2ccc(N3CCC(c4ccc(OCCN5CCN(C)C(=O)[C@H]5C)cc4)CC3)nn12` [AZD5153] + CC1(C)CCC(CN2CCN(c3ccc(C(=O)NS(=O)(=O)c4ccc(NCC5CCOCC5)c([N+](=O)[O-])c4)c(Oc4cnc5[nH]ccc5c4)c3)CC2)=C(c2ccc(Cl)cc2)C1 [Venetoclax] (first compound max 1 µM, 7x7, partner max 1 µM), the Bliss excess [1] was -0.05 and the Bliss excess (YH-13 (Glioblastoma)) was -0.0441.

`COc1nnc2ccc(N3CCC(c4ccc(OCCN5CCN(C)C(=O)[C@H]5C)cc4)CC3)nn12` [AZD5153] + C=CCn1c(=O)c2cnc(Nc3ccc(N4CCN(C)CC4)cc3)nc2n1-c1cccc(C(C)(C)O)n1 [AZD1775] (first compound max 1 µM, partner max 1 µM) showed a Bliss excess [1] of -0.109 and a Bliss excess (YH-13 (Glioblastoma)) of -0.0451.
